The data set deals with CCRIS mutagenicity, Ames/micronucleus/aberration tests. Briefly: CCRIS mutagenicity studies. Conditions: Test System: AMES SALMONELLA TYPHIMURIUM

Activity calls are given as the source filed them. No rule for the calls is given here.

`O=[N+]([O-])c1ccc2c(c1)CCc1c-2ccc2c1CCCC2`: the mutagenic call is “active; positive” (Strain/Indicator: TA98(1,8-DNP6), Metabolic Activation: NONE); “active; positive” (Strain/Indicator: TA98(1,8-DNP6), Metabolic Activation: RAT, LIVER, S-9, AROCLOR 1254); “active; positive” (Strain/Indicator: TA98(NR), Metabolic Activation: NONE); “active; positive” (Strain/Indicator: TA98(NR), Metabolic Activation: RAT, LIVER, S-9, AROCLOR 1254); “active; positive” (Strain/Indicator: TA98, Metabolic Activation: NONE); “active; positive” (Strain/Indicator: TA98, Metabolic Activation: RAT, LIVER, S-9, AROCLOR 1254). Also, the mutagenic call by setting is: (Strain/Indicator: TA100(NR), Metabolic Activation: NONE) “inactive; negative”; (Strain/Indicator: TA100(NR), Metabolic Activation: RAT, LIVER, S-9, AROCLOR 1254) “active; positive”; (Strain/Indicator: TA100, Metabolic Activation: NONE) “active; positive”; (Strain/Indicator: TA100, Metabolic Activation: RAT, LIVER, S-9, AROCLOR 1254) “active; positive”; (Strain/Indicator: TA104, Metabolic Activation: NONE) “active; positive”; (Strain/Indicator: TA104, Metabolic Activation: RAT, LIVER, S-9, AROCLOR 1254) “active; positive”.

As for `O=CC(O)C(O)C(O)C(O)CO` (centres undefined), the mutagenic call is “inactive; negative” (Strain/Indicator: TA97, Metabolic Activation: NONE, Method: PREINCUBATION); “inactive; negative” (Strain/Indicator: TA97, Metabolic Activation: S-9, Method: PREINCUBATION); “inactive; negative” (Strain/Indicator: TA102, Metabolic Activation: NONE, Method: PREINCUBATION); “inactive; negative” (Strain/Indicator: TA102, Metabolic Activation: S-9, Method: PREINCUBATION).

As to `Cc1cccc2ccc3cc4ccccc4cc3c12`, the mutagenic call (Strain/Indicator: TA100, Metabolic Activation: RAT, INTACT HEPATOCYTES, AROCLOR 1254, Method: PREINCUBATION) was “active; positive”; the mutagenic call (Strain/Indicator: TA100, Metabolic Activation: RAT, NADPH-FORTIFIED HOMOGENIZED HEPATOCYTES, AROCLOR 1254, Method: PREINCUBATION) was “active; positive”; the mutagenic call (Strain/Indicator: TA100, Metabolic Activation: RAT, SONICATED HEPATOCYTES, AROCLOR 1254, Method: PREINCUBATION) is “active; positive”.
